Laboratory results from patent US20260347319A1, “YAP/TAZ-TEAD ONCOPROTEINS INHIBITORS” (BridGene Biosciences, Inc., priority 2022, published 2026).

Assays:
Type in all cases: cell-based
[1] = test system: TEAD1; assay: MCF-7 TEAD1-luciferase reporter assay (MCF7-TEAD-Luc); settings: MCF7 cells, overnight; for IC50: Homo sapiens; for TEAD1-Luc MCF7: Max Inhibition: % of DMSO-treated control
Procedure: The ability of compounds to inhibit TEAD-dependent transcription was assessed in the MCF7-TEAD-Luc reporter assay (BPS #60618). Cells were seeded at 10,000 cells in 200 μL per well into white wall, clear bottom 96-well plates (Corning #3610) and incubated at 37° C. for 24 hours, then treated with serial diluted compounds overnight, and luciferase signal was measured using the ONE-Step Luciferase Assay System (BPS #60690) using an EnSight Multimode plate reader (PerkinElmer, model #MLDHH34000000, integration time 100 ms) with Kaleido 3.0. software. For data analysis, dose-dependent curves were plotted as “% inhibition” (% of DMSO-treated control wells), and were fitted by four-parametric model in GraphPad Prism to obtain IC50 values.

[2] = test system: H2052 cells; assay: Cell proliferation and viability assay (CPA) in H2052 cells; settings: for IC50: Homo sapiens, NCI-H2052, read-out: CPA H2052 IC50 Ave
Procedure: Compound potency and efficacy in inhibiting cell proliferation and viability was assessed in multiple cell lines. For example, NCI-H226 cells (ATCC #CRL-5826) were seeded at 2000 cells in 200 μL medium per well of a 96-well plate (Corning #3610) and incubated at 37° C. for 24 hours, then treated with serial diluted compounds for up to 6 d. Viable cells were measured by CellTiter-Glo 2.0 Cell Viability Assay (Promega #G9243), and the luminescence signal was read using an EnSight Multimode plate reader (PerkinElmer, model 9MLDHH34000000, integration time 100 ms) with Kaleido 3.0. software. For data analysis, dose-dependent curves were plotted as “inhibition” (% of DMSO-treated control wells), and were fitted by four-parametric model in GraphPad Prism to obtain IC50 values.
Alternatively, cells were plated at 2000 cells in 200 μL medium per well of a 96-well plate (Corning #3585) overnight, treated with compound for 7 days, cell density images taken by Incycte S3 live cell analysis instrument (Sartorius) every 24 hours at the same time. Images were analyzed by Incucyte's AI-driven software to get C “% confluence” for every image. Dose-dependent curves were plotted as “% inhibition” (% o of DMSO-treated control wells) and were fitted by four-parametric model in GraphPad Prism to obtain IC50 values.

[3] = test system: NCI-H226 cells; assay: Cell proliferation and viability assay (CPA) in NCI-H226 cells; settings: up to 6 d
Procedure: Compound potency and efficacy in inhibiting cell proliferation and viability was assessed in multiple cell lines. For example, NCI-H226 cells (ATCC #CRL-5826) were seeded at 2000 cells in 200 μL medium per well of a 96-well plate (Corning #3610) and incubated at 37° C. for 24 hours, then treated with serial diluted compounds for up to 6 d. Viable cells were measured by CellTiter-Glo 2.0 Cell Viability Assay (Promega #G9243), and the luminescence signal was read using an EnSight Multimode plate reader (PerkinElmer, model 9MLDHH34000000, integration time 100 ms) with Kaleido 3.0. software. For data analysis, dose-dependent curves were plotted as “inhibition” (% of DMSO-treated control wells), and were fitted by four-parametric model in GraphPad Prism to obtain IC50 values. […]

| Compound | IC50 [1] [nM] | IC50 [2] [nM] | IC50 ([3]; Homo sapiens, 144 h, read-out: CPA NCI-H226 IC50 Ave) [nM] | TEAD1-Luc MCF7: Max Inhibition [1] | CPA H2052 Max Inh Ave [2] | CPA NCI-H226 Max Inh Ave [3] |
| --- | --- | --- | --- | --- | --- | --- |
| C=CC(=O)N1CC[C@](C#Cc2ccc(C(F)(F)F)cc2)(OC)C1 (single isomer, unassigned) [Example 59, (R*)-1-(3-methoxy-3-((4-(trifluoromethyl)phenyl)ethynyl)pyrrolidin-1-yl)prop-2-en-1-one] | 10 to 100 | 100 to 500 | ≤ 100 | A (A ≥ 75%) | B (75% > B ≥ 50%) | A (A ≥ 75%) |
| C=CC(=O)N1CCC(C#Cc2ccc(C(F)(F)F)cc2)(OC)CC1 [Example 71, 1-(4-methoxy-4-((4-(trifluoromethyl)phenyl)ethynyl)piperidin-1-yl)prop-2-en-1-one] | 10 to 100 |  |  | B (75% > B ≥ 50%) |  |  |
| C=CC(=O)N1CCC(F)(C#Cc2ccc(C(F)(F)F)cc2)CC1 [Example 72, 1-(4-fluoro-4-((4-(trifluoromethyl)phenyl)ethynyl)piperidin-1-yl)prop-2-en-1-one] | 10 to 100 |  |  | B (75% > B ≥ 50%) |  |  |
| C=CC(=O)N1CCC(O)(C#Cc2ccc(C(F)(F)F)cc2)CC1 [Example 73, 1-(4-hydroxy-4-((4-(trifluoromethyl)phenyl)ethynyl)piperidin-1-yl)prop-2-en-1-one] | 10 to 100 |  |  | A (A ≥ 75%) |  |  |
| C=CC(=O)N1CCC(C)(C#Cc2ccc(C(F)(F)F)cc2)CC1 [Example 74, 1-(4-methyl-4-((4-(trifluoromethyl)phenyl)ethynyl)piperidin-1-yl)prop-2-en-1-one] | ≤ 10 |  |  | B (75% > B ≥ 50%) |  |  |
| C=CC(=O)N1CCCC(C#Cc2cccc(C(F)(F)F)c2)C1 (stereo not shown) [Example 75, 1-(3-((3-(trifluoromethyl)phenyl)ethynyl)piperidin-1-yl)prop-2-en-1-one] | 10 to 100 |  |  | A (A ≥ 75%) |  |  |
| C=CC(=O)N1CCCC(C#Cc2ccc(C(F)(F)F)cc2)C1 (stereo not shown) [Example 76, 1-(3-((4-(trifluoromethyl)phenyl)ethynyl)piperidin-1-yl)prop-2-en-1-one] | 10 to 100 |  |  | A (A ≥ 75%) |  |  |
| C=CC(=O)N1CCC(C#Cc2cccc(C(F)(F)F)c2)CC1 [Example 79, 1-(4-((3-(trifluoromethyl)phenyl)ethynyl)piperidin-1-yl)prop-2-en-1-one] | 10 to 100 |  |  | B (75% > B ≥ 50%) |  |  |
| C=CC(=O)N1CCC(C#Cc2ccc(C(F)(F)F)cc2)CC1 [Example 80, 1-(4-((4-(trifluoromethyl)phenyl)ethynyl)piperidin-1-yl)prop-2-en-1-one] | 10 to 100 |  |  | A (A ≥ 75%) |  |  |
| CC#CC(=O)N1CC[C@H](/C=C/c2ccc(C(F)(F)F)cc2)C1 [Example 81, (R,E)-1-(3-(4-(trifluoromethyl)styryl)pyrrolidin-1-yl)but-2-yn-1-one] | 100 to 500 |  |  | B (75% > B ≥ 50%) |  |  |
| C#CC(=O)N1CC[C@H](/C=C/c2ccc(C(F)(F)F)cc2)C1 [Example 82, (R, E)-1-(3-(4-(trifluoromethyl)styryl)pyrrolidin-1-yl)prop-2-yn-1-one] | 10 to 100 |  |  | A (A ≥ 75%) |  |  |
| C=CC(=O)N1CC[C@H](C(C)(C)/C=C/c2ccc(C(F)(F)F)cc2)C1 [Example 86, (R, E)-1-(3-(2-methyl-4-(4-(trifluoromethyl)phenyl)but-3-en-2-yl)pyrrolidin-1-yl)prop-2-en-1-one] | 10 to 100 |  |  | B (75% > B ≥ 50%) |  |  |
| C=CC(=O)N1CCC(C/C=C/c2ccc(C(F)(F)F)cc2)CC1 [Example 90, (E)-1-(4-(3-(4-(trifluoromethyl)phenyl)allyl)piperidin-1-yl)prop-2-en-1-one] | 10 to 100 |  |  | B (75% > B ≥ 50%) |  |  |
| C=CC(=O)N1CCC(/C=C\C(OC)c2ccc(C(F)(F)F)cc2)C1 (stereo not shown) [Example 101, (Z)-1-(3-(3-methoxy-3-(4-(trifluoromethyl)phenyl)prop-1-en-1-yl)pyrrolidin-1-yl)prop-2-en-1-one] | 100 to 500 |  |  | B (75% > B ≥ 50%) |  |  |
| C=CC(=O)N1CCC(/C=C/C(OC)c2ccc(C(F)(F)F)cc2)C1 (stereo not shown) [Example 102, (E)-1-(3-(3-methoxy-3-(4-(trifluoromethyl)phenyl)prop-1-en-1-yl)pyrrolidin-1-yl)prop-2-en-1-one] | 10 to 100 |  |  | C (50% > C ≥ 2%) |  |  |
| C=CC(=O)N1CCC2(C=C(c3ccc(C(F)(F)F)cc3)OC2)C1 (stereo not shown) [Example 105, 1-(3-(4-(trifluoromethyl)phenyl)-2-oxa-7-azaspiro[4.4]non-3-en-7-yl)prop-2-en-1-one] | 10 to 100 |  |  | A (A ≥ 75%) |  |  |
| C=CC(=O)N1CCC2(CC(/C=C/c3ccc(C(F)(F)F)cc3)C2)C1 (stereo not shown) [Example 106, (E)-1-(2-(4-(trifluoromethyl)styryl)-6-azaspiro[3.4]octan-6-yl)prop-2-en-1-one] | 10 to 100 |  |  | B (75% > B ≥ 50%) |  |  |

The next lines start with results.

| IC50 [1] [nM] | IC50 [2] [nM] | IC50 ([3]; Homo sapiens, 144 h, read-out: CPA NCI-H226 IC50 Ave) [nM] | Compound | TEAD1-Luc MCF7: Max Inhibition [1] | CPA H2052 Max Inh Ave [2] | CPA NCI-H226 Max Inh Ave [3] |
| --- | --- | --- | --- | --- | --- | --- |
| 10 to 100 | 100 to 500 |  | C=CC(=O)N1CC[C@@H](/C=C/c2ccc(C(F)(F)F)cc2)C1 [Example 9] |  |  |  |
| 10 to 100 | 100 to 500 |  | C=CC(=O)N1CC(/C=C\c2cnc(C(F)(F)F)s2)C1 [Example 12] |  |  |  |
| 10 to 100 | 100 to 500 |  | C=CC(=O)N1CC(/C=C/c2cccc(C(F)(F)F)c2)C1 [Example 14] | B (75% > B ≥ 50%) | B (75% > B ≥ 50%) |  |
| 100 to 500 |  |  | C=CC(=O)N1CC(c2cc3ccc(C(F)(F)F)cc3n2C)C1 [Example 53, 1-{3-[1-methyl-6-(trifluoromethyl)indol-2-yl]azetidin-1-yl}prop-2-en-1-one] | B (75% > B ≥ 50%) |  |  |
| 100 to 500 |  |  | C=CC(=O)N1CCC(/C=C/c2cccc(C(F)(F)F)c2)CC1 [Example 54, (E)-1-(4-(3-(trifluoromethyl)styryl)piperidin-1-yl)prop-2-en-1-one] | B (75% > B ≥ 50%) |  |  |
| > 500 |  |  | C=CC(=O)N1CCC(/C=C\c2cccc(C(F)(F)F)c2)CC1 [Example 55, (Z)-1-(4-(3-(trifluoromethyl)styryl)piperidin-1-yl)prop-2-en-1-one] | C (50% > C ≥ 2%) |  |  |
| 10 to 100 |  |  | C=CC(=O)N1CC(/C=C/c2ccc(C(F)(F)F)cc2)C(n2cccn2)C1 (stereo not shown) [Example 70] | A (A ≥ 75%) |  |  |
| 10 to 100 |  |  | CC#CC(=O)N1CC(/C=C/c2ccc(C(F)(F)F)cc2)C1 [Example 77, (E)-1-(3-(4-(trifluoromethyl)styryl)azetidin-1-yl)but-2-yn-1-one] | B (75% > B ≥ 50%) |  |  |
| 100 to 500 |  |  | C#CC(=O)N1CC(/C=C/c2ccc(C(F)(F)F)cc2)C1 [Example 78, (E)-1-(3-(4-(trifluoromethyl)styryl)azetidin-1-yl)prop-2-yn-1-one] | A (A ≥ 75%) |  |  |
| 100 to 500 |  |  | C=CC(=O)N1CC[C@H](/C=C\c2ccc(C(F)(F)F)cc2)C1 [Example 87, (R, Z)-1-(3-(4-(trifluoromethyl)styryl)pyrrolidin-1-yl)prop-2-en-1-one] | B (75% > B ≥ 50%) |  |  |
| 10 to 100 |  |  | C=CC(=O)N1CCC(/C=C/C(O)c2ccc(C(F)(F)F)cc2)C1 (stereo not shown) [Example 99, (E)-1-(3-(3-hydroxy-3-(4-(trifluoromethyl)phenyl)prop-1-en-1-yl)pyrrolidin-1-yl)prop-2-en-1-one] | B (75% > B ≥ 50%) |  |  |
| 10 to 100 |  |  | C=CC(=O)N1CCC(/C=C\C(O)c2ccc(C(F)(F)F)cc2)C1 (stereo not shown) [Example 100, (Z)-1-(3-(3-hydroxy-3-(4-(trifluoromethyl)phenyl)prop-1-en-1-yl)pyrrolidin-1-yl)prop-2-en-1-one] | B (75% > B ≥ 50%) |  |  |
